# Earlier results as cited in patent US12622903B2, “Drug products for intranasal administration and uses thereof” (Summit Biosciences Inc., priority 2020, dated 2026).
# System: opioid overdose
structure (smiles),measurement,setting,value
"C=CCN1CC[C@]23c4c5ccc(O)c4O[C@H]2C(=O)CC[C@@]3(O)[C@H]1C5 [naloxone, 17-allyl-4,5a-epoxy-3,14-dihydroxymorphinan-6-one]",participants reporting serious adverse effects,DOPE Project participants,< 1%
same,overdose events reported reversed,"of 399 overdose events where naloxone was used, participant reports",89%
